According to ChEMBL document CHEMBL1201862, “PubChem BioAssay data set” (2004):
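Five concentrations, 48 hours, 96-well plates. GI50 is the concentration that inhibits growth by half.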 Calls of active or inactive are those of the source. No stated cut-off is given here; in the data, active = GI50 up to about 1.1 µM and inactive = higher.

Legend:
Assay in all cases: NCI-60 cell line screen, 48 h
Hs-578T = system: Hs-578T
K562 = system: K562
SF-295 = system: SF-295
CCRF-CEM = system: CCRF-CEM
TK-10 = system: TK-10
COLO 205 = system: COLO 205
ACHN = system: ACHN
NCI-H460 = system: NCI-H460
LOX IMVI = system: LOX IMVI
M14 = system: M14
HCT-15 = system: HCT-15
SF-268 = system: SF-268
SNB-75 = system: SNB-75
UO-31 = system: UO-31
UACC-62 = system: UACC-62
HL-60 = system: HL-60
MDA-MB-231 = system: MDA-MB-231
SK-MEL-28 = system: SK-MEL-28
KM12 = system: KM12
NCI-H522 = system: NCI-H522
MOLT-4 = system: MOLT-4
T47D = system: T47D
NCI-H226 = system: NCI-H226
MDA-MB-435 = system: MDA-MB-435
SK-MEL-2 = system: SK-MEL-2
SN12C = system: SN12C
PC-3 = system: PC-3
NCI-H23 = system: NCI-H23
SK-MEL-5 = system: SK-MEL-5
OVCAR-5 = system: OVCAR-5
CAKI-1 = system: CAKI-1
MDA-N = system: MDA-N
SW-620 = system: SW-620
UACC-257 = system: UACC-257
SR = system: SR
U-251 = system: U-251
IGROV-1 = system: IGROV-1
NCI/ADR-RES = system: NCI/ADR-RES
HOP-62 = system: HOP-62
A549 = system: A549
RPMI-8226 = system: RPMI-8226
EKVX = system: EKVX
MCF7 = system: MCF7
SF-539 = system: SF-539
RXF 393 = system: RXF 393
HCT-116 = system: HCT-116
Malme-3M = system: Malme-3M
DU-145 = system: DU-145
OVCAR-8 = system: OVCAR-8
HT-29 = system: HT-29
OVCAR-3 = system: OVCAR-3
HCC 2998 = system: HCC 2998
SNB-19 = system: SNB-19
BT-549 = system: BT-549
786-0 = system: 786-0
SK-OV-3 = system: SK-OV-3
A498 = system: A498
HOP-92 = system: HOP-92
OVCAR-4 = system: OVCAR-4

Compound: Cc1cccc(CC(Cc2ccc(C)cc2C(=O)O)C(=O)O)c1 (stereo not drawn)
- GI50 (Hs-578T): > 100 µM (inactive)
- GI50 (K562): > 100 µM (inactive)
- GI50 (SF-295): > 100 µM (inactive)
- GI50 (CCRF-CEM): > 100 µM (inactive)
- GI50 (TK-10): > 100 µM (inactive)
- GI50 (COLO 205): > 100 µM (inactive)
- GI50 (ACHN): > 100 µM (inactive)
- GI50 (NCI-H460): > 100 µM (inactive)
- GI50 (LOX IMVI): > 100 µM (inactive)
- GI50 (M14): > 100 µM (inactive)
- GI50 (HCT-15): > 100 µM
- GI50 (SF-268): > 100 µM (inactive)
- GI50 (SNB-75): > 100 µM (inactive)
- GI50 (UO-31): > 100 µM (inactive)
- GI50 (UACC-62): 42 µM (inactive)
- GI50 (HL-60): > 100 µM (inactive)
- GI50 (MDA-MB-231): > 100 µM (inactive)
- GI50 (SK-MEL-28): > 100 µM (inactive)
- GI50 (KM12): > 100 µM (inactive)
- GI50 (NCI-H522): > 100 µM (inactive)
- GI50 (MOLT-4): > 100 µM (inactive)
- GI50 (T47D): > 100 µM (inactive)
- GI50 (NCI-H226): > 100 µM (inactive)
- GI50 (MDA-MB-435): > 100 µM (inactive)
- GI50 (SK-MEL-2): > 100 µM (inactive)
- GI50 (SN12C): > 100 µM (inactive)
- GI50 (PC-3): > 100 µM (inactive)
- GI50 (NCI-H23): > 100 µM (inactive)
- GI50 (SK-MEL-5): > 100 µM (inactive)
- GI50 (OVCAR-5): > 100 µM (inactive)
- GI50 (CAKI-1): > 100 µM (inactive)
- GI50 (MDA-N): > 100 µM (inactive)
- GI50 (SW-620): > 100 µM (inactive)
- GI50 (UACC-257): > 100 µM (inactive)
- GI50 (SR): > 100 µM (inactive)
- GI50 (U-251): > 100 µM (inactive)
- GI50 (IGROV-1): > 100 µM (inactive)
- GI50 (NCI/ADR-RES): > 100 µM (inactive)
- GI50 (HOP-62): > 100 µM (inactive)
- GI50 (A549): > 100 µM (inactive)
- GI50 (RPMI-8226): > 100 µM (inactive)
- GI50 (EKVX): > 100 µM (inactive)
- GI50 (MCF7): > 100 µM (inactive)
- GI50 (SF-539): > 100 µM (inactive)
- GI50 (RXF 393): > 100 µM (inactive)
- GI50 (HCT-116): > 100 µM (inactive)
- GI50 (Malme-3M): > 100 µM (inactive)
- GI50 (DU-145): > 100 µM (inactive)
- GI50 (OVCAR-8): > 100 µM (inactive)
- GI50 (HT-29): > 100 µM (inactive)
- GI50 (OVCAR-3): > 100 µM (inactive)
- GI50 (HCC 2998): > 100 µM (inactive)
- GI50 (SNB-19): > 100 µM (inactive)
- GI50 (BT-549): > 100 µM (inactive)
- GI50 (786-0): > 100 µM (inactive)
- GI50 (SK-OV-3): 74.1 µM (inactive)
- GI50 (A498): > 100 µM (inactive)
- GI50 (HOP-92): > 100 µM (inactive)
- GI50 (OVCAR-4): > 100 µM (inactive)

Compound: Cc1ccc(-c2cn3c(nc4ccccc43)c(-c3ccccc3)n2)cc1
- GI50 (Hs-578T): 15.3 µM (inactive)
- GI50 (K562): > 100 µM (inactive)
- GI50 (SF-295): 19.8 µM (inactive)
- GI50 (CCRF-CEM): > 100 µM (inactive)
- GI50 (TK-10): 27.5 µM (inactive)
- GI50 (COLO 205): > 100 µM (inactive)
- GI50 (ACHN): 34 µM (inactive)
- GI50 (NCI-H460): > 94.4 µM (inactive)
- GI50 (LOX IMVI): > 100 µM (inactive)
- GI50 (M14): > 100 µM (inactive)
- GI50 (HCT-15): > 100 µM
- GI50 (SF-268): > 45.3 µM (inactive)
- GI50 (SNB-75): 8.45 µM (inactive)
- GI50 (UO-31): > 49.1 µM (inactive)
- GI50 (UACC-62): 22.4 µM (inactive)
- GI50 (HL-60): > 100 µM (inactive)
- GI50 (MDA-MB-231): > 100 µM (inactive)
- GI50 (SK-MEL-28): > 100 µM (inactive)
- GI50 (KM12): > 100 µM (inactive)
- GI50 (NCI-H522): 20.5 µM (inactive)
- GI50 (MOLT-4): > 100 µM (inactive)
- GI50 (T47D): 32.1 µM (inactive)
- GI50 (NCI-H226): 58.3 µM (inactive)
- GI50 (MDA-MB-435): > 100 µM (inactive)
- GI50 (SK-MEL-2): 18 µM (inactive)
- GI50 (SN12C): > 100 µM (inactive)
- GI50 (PC-3): > 100 µM (inactive)
- GI50 (NCI-H23): 24 µM (inactive)
- GI50 (SK-MEL-5): > 100 µM (inactive)
- GI50 (OVCAR-5): > 100 µM (inactive)
- GI50 (CAKI-1): 37.7 µM (inactive)
- GI50 (MDA-N): > 100 µM (inactive)
- GI50 (SW-620): > 100 µM (inactive)
- GI50 (UACC-257): > 100 µM (inactive)
- GI50 (SR): > 100 µM (inactive)
- GI50 (U-251): 18.8 µM (inactive)
- GI50 (IGROV-1): 37.9 µM (inactive)
- GI50 (NCI/ADR-RES): 47.9 µM (inactive)
- GI50 (HOP-62): 15.6 µM (inactive)
- GI50 (A549): > 100 µM (inactive)
- GI50 (RPMI-8226): > 100 µM (inactive)
- GI50 (EKVX): > 100 µM (inactive)
- GI50 (MCF7): 27.7 µM (inactive)
- GI50 (SF-539): 58.2 µM (inactive)
- GI50 (RXF 393): 25.1 µM (inactive)
- GI50 (HCT-116): 75 µM (inactive)
- GI50 (Malme-3M): > 83 µM (inactive)
- GI50 (DU-145): > 100 µM (inactive)
- GI50 (OVCAR-8): 27.9 µM (inactive)
- GI50 (HT-29): > 100 µM (inactive)
- GI50 (OVCAR-3): > 100 µM (inactive)
- GI50 (HCC 2998): > 100 µM (inactive)
- GI50 (SNB-19): 16.7 µM (inactive)
- GI50 (BT-549): 32.5 µM (inactive)
- GI50 (786-0): 15.1 µM (inactive)
- GI50 (SK-OV-3): 18.3 µM (inactive)
- GI50 (A498): 30.9 µM (inactive)
- GI50 (HOP-92): 20.7 µM (inactive)
- GI50 (OVCAR-4): > 80.7 µM (inactive)
